Active and inactive are the calls of the source. The rule behind the calls is not given here.
How the values were obtained:
[1] = Drug metabolism in Mycobacterium tuberculosis H37Rv assessed as compound remaining at 0.25 to 5 times MIC for 16 hrs measured 15 to 60 mins post compound washout; assay type: ADME, organism-based; details: Mycobacterium tuberculosis H37Rv cells, read-out: Stability
[2] = test system: Mycobacterium tuberculosis; assay: Reduction in intracellular dipeptide D-alanyl-D-alanine pool size in Mycobacterium tuberculosis H37Rv up to 5 times MIC by filter-based mass spectrometry technique; assay type: functional, organism-based
[3] = test system: Mycobacterium tuberculosis; assay: Ratio of MIC for Mycobacterium tuberculosis H37Rv in presence of D-Alanine to MIC for Mycobacterium tuberculosis H37Rv; assay type: functional
[4] = test system: Mycobacterium tuberculosis; assay: Reduction in intracellular total Alanine pool size in Mycobacterium tuberculosis H37Rv at MIC by filter-based mass spectrometry technique; assay type: functional, organism-based
[5] = test system: Mycobacterium tuberculosis; assay: Reduction in intracellular dipeptide D-alanyl-D-alanine pool size in Mycobacterium tuberculosis H37Rv at MIC by filter-based mass spectrometry technique; assay type: functional, organism-based
[6] = test system: Mycobacterium tuberculosis; assay: Antimycobacterial activity against Mycobacterium tuberculosis H37Rv at 0.25 to 16 times MIC after 7 days in presence of L-Alanine; assay type: functional, organism-based
[7] = test system: Mycobacterium tuberculosis; assay: Antimycobacterial activity against Mycobacterium tuberculosis H37Rv at 0.25 to 16 times MIC after 7 days in presence of D-Alanine; assay type: functional, organism-based
[8] = target: T1, D-alanine--D-alanine ligase (Mycobacterium tuberculosis) (UniProt P9WP31); assay: Competitive inhibition of D-alanine-D-alanine ligase in Mycobacterium tuberculosis H37Rv at MIC preincubated for 16 hrs followed by D-Ala-[2H] addition measured over 8 hrs by LC-MS/MS analysis
T1 sequence (whole entry): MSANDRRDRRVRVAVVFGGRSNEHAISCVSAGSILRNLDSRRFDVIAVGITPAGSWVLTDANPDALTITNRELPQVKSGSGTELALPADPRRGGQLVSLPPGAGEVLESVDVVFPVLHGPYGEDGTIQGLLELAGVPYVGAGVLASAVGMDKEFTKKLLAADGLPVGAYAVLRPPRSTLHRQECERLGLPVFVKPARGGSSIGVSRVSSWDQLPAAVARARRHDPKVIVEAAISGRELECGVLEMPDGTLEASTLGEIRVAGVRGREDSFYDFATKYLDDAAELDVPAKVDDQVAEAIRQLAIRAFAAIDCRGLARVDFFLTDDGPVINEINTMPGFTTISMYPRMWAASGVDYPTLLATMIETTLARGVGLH

[9] = target: T2, Alanine racemase (Mycobacterium tuberculosis) (UniProt P9WQA9); assay: Inhibition of alanine racemase in Mycobacterium tuberculosis H37Rv at 5 times MIC preincubated for 16 hrs followed by compound re-addition with L-Ala-[13C]-[3H] measured over 8 hrs by LC-MS/MS analysis
T2 sequence (whole entry): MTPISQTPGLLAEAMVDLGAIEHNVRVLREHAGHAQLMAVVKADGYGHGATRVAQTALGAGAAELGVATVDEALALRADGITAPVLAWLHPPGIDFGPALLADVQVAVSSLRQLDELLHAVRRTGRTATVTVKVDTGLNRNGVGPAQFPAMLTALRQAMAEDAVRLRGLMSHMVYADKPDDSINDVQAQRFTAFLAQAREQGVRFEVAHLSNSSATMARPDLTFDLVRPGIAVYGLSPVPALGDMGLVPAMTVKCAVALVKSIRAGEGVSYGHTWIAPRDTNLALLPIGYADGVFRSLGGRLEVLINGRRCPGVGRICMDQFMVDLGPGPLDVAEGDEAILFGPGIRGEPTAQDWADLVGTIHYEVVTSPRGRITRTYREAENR

[10] = target: T1, D-alanine--D-alanine ligase (Mycobacterium tuberculosis); assay: Inhibition of D-alanine-D-alanine ligase in Mycobacterium tuberculosis H37Rv assessed as inhibition of denovo D-Alanyl-D-alanine synthesis at 2 times MIC preincubated for 16 hrs followed L-Ala-[13C]-[3H] addition measured over 8 hrs by LC-MS/MS analysis
[11] = target: T1, D-alanine--D-alanine ligase (Mycobacterium tuberculosis); assay: Inhibition of D-alanine-D-alanine ligase in Mycobacterium tuberculosis H37Rv assessed as inhibition of denovo D-Alanyl-D-alanine synthesis at MIC preincubated for 16 hrs followed by L-Ala-[13C]-[3H] addition measured over 8 hrs by LC-MS/MS analysis
[12] = test system: Mycobacterium tuberculosis; assay: Reduction in intracellular total Alanine pool size in Mycobacterium tuberculosis H37Rv at 0.25 to 5 times MIC by filter-based technique; assay type: functional, organism-based
[13] = target: T1, D-alanine--D-alanine ligase (Mycobacterium tuberculosis); assay: Inhibition of D-alanine-D-alanine ligase in Mycobacterium tuberculosis H37Rv assessed as depletion in D-Alanyl-D-alanine level preincubated for 16 hrs measured post 24 hrs of compound washout

In the case of `N[C@@H]1CON=C1O` [CYCLOSERINE], the remaining at 16 h [1] is reported as < 10%.

For `CN[C@@H]1[C@H](O[C@H]2[C@H](O[C@H]3[C@H](O)[C@@H](O)[C@H](N=C(N)N)[C@@H](O)[C@@H]3N=C(N)N)O[C@@H](C)[C@]2(O)C=O)O[C@@H](CO)[C@H](O)[C@H]1O`, the Activity [2] was “inactive”.

For `N[C@H]1CONC1=O` [LEVCYCLOSERINE], the Ratio [3] was 4, the Activity [4] was “Active” and the Activity [5] was “Active”. For the same compound, the Activity [6] was “inactive” and the Activity [7] was “inactive”.

For `N[C@@H]1CONC1=O` [CYCLOSERINE], the Ratio [3] was 2, the Activity [8] was “inactive” and the inhibition [9] was “inactive”. The inhibition [10] was “Active”, the inhibition [11] was “Active” and the Activity [12] was “Active”. The Activity [2] was “Dose-dependent effect”, the inhibition [13] was “Dose-dependent effect” and the Activity [6] was “Active”. The Activity [7] was “inactive”.
